Experimental data from ChEMBL document CHEMBL5120920, “A Mitochondria-Targeted Phenylbutyric Acid Prodrug Confers Drastically Improved Anticancer Activities” (J Med Chem, 2022).
Calls of active or inactive are those of the source. The calls are words filed in the database; no cut-off is given here.

Experiments:
[1] = Apparent permeability across apical to basolateral side in human Caco-2 cells at 2 uM measured after 2 hrs by LC-MS/MS analysis; format: ADME, cell-based
[2] = Drug uptake in human A-375 cells mitochondria assessed as fold increase at 10 uM measured after 4 hrs relative to PBA; format: ADME; conditions: a-375, 4 h
A-375 [3] = assay: Induction of mitochondrial membrane hyperpolarization in human A-375 cells assessed as JC-1 level at 2.5 to 10 uM incubated for 4 hrs by JC-1 staining based flow cytometry analysis relative to control; format: functional; conditions: dose 2.5-10 µM
A-375 [4] = assay: Inhibition of cell migration in human A-375 cells incubated for 24 hrs by wound healing assay; format: functional, cell-based; conditions: dose 1.5-2.5 µM, DDE = dose-dependent effect
A-375 [5] = assay: Induction of cell cycle arrest in human A-375 cells assessed as accumulation at G2 phase at 5 uM incubated for 24 hrs by PI staining based flow cytometry analysis (reference value: 7.92 %); format: functional
A-375 [6] = assay: Induction of apoptosis in human A-375 cells assessed as apoptotic cells at 10 uM measured at 24 hrs by Annexin V FITC/PI staining based flow cytometry analysis relative to control; format: functional
[7] = Toxicity in BALB/c mouse assessed as histopathological changes in liver at 50 to 100 mg/kg, iv measured after 7 days by H and E staining based assay; format: organism-based; conditions: in vivo, 168 h, dose 50-100 mg/kg, time 7 day
A-375 [8] = assay: Antitumor activity against human A-375 cells implanted in BALB/c mouse assessed as reduction in tumor weight at 40 mg/kg, ip measured once every two days for 14 days; format: functional, organism-based; conditions: time 14.0 day
MCF7 [9] = assay: Induction of mitochondrial membrane hyperpolarization in human MCF7 cells assessed as JC-1 level at 2.5 to 10 uM incubated for 4 hrs by JC-1 staining based flow cytometry analysis relative to control; format: functional; conditions: dose 2.5-10 µM
[10] = Drug uptake in human A-375 cells measured at 10 mins by RP-HPLC-UV analysis; format: ADME, cell-based; conditions: a-375, 10 min
[11] = biological target: Histone deacetylase (Homo sapiens) (UniProt Q13547+O15379+Q9UBN7+Q92769+Q9UQL6+Q8WUI4+Q9BY41+Q96DB2+P56524+Q9UKV0+Q969S8); assay: Inhibition of HDAC in human A-375 cells assessed as upregulation of histone-H3 acetylation at 5 to 20 uM measured after 24 hrs; format: cell-based; conditions: dose 5-20 µM
[12] = biological target: Pyruvate dehydrogenase kinase (Homo sapiens) (UniProt Q15119+Q15120+Q16654+Q15118); assay: Inhibition of PDK in human A-375 cells assessed as reduction in PDH phosphorylation at ser293 residue at 5 to 20 uM after 24 to 48 hrs; format: cell-based; conditions: dose 5-20 µM, time 24-48 hrs
A-375 [13] = assay: Induction of apoptosis in human A-375 cells assessed as apoptotic cells at 2.5 uM measured after 48 hrs by Annexin V FITC/PI staining based flow cytometry analysis relative to control; format: functional
[14] = Toxicity in BALB/c mouse assessed as death of animal at 125 to 200 mg/kg, iv administered for 7 days; format: organism-based; conditions: in vivo, 168 h, dose 125-200 mg/kg, time 7 day
[15] = Toxicity in nude mouse xenografted with human A-375 cells assessed as body weight loss at 10 to 40 mg/kg, ip measured once every two days for 14 days; format: organism-based; conditions: in vivo, 336 h, dose 10-40 mg/kg, time 14 day
HUVEC = assay: Induction of mitochondrial membrane hyperpolarization in HUVEC assessed as JC-1 level at 2.5 to 10 uM incubated for 4 hrs by JC-1 staining based flow cytometry analysis relative to control; format: functional, Homo sapiens; conditions: dose 2.5-10 µM
A-375 [16] = assay: Induction of apoptosis in human A-375 cells assessed as apoptotic cells at 10 uM measured at 72 hrs by Annexin V FITC/PI staining based flow cytometry analysis relative to control; format: functional
[17] = Apparent permeability across basolateral to apical side in human Caco-2 cells at 2 uM measured after 2 hrs by LC-MS/MS analysis; format: ADME, cell-based
A-375 [18] = assay: Antitumor activity against human A-375 cells xenografted in nude mouse assessed as shrinkage of tumor tissue at 10 to 40 mg/kg, ip measured once every two days for 14 days; format: functional, organism-based; conditions: dose 10-40 mg/kg, time 14.0 day
MCF7 [19] = assay: Antiproliferative activity against human MCF7 cells assessed as inhibition of cell viability incubated for 72 hrs by MTT assay; format: functional, cell-based; conditions: MCF7, 72 h
[20] = Toxicity in BALB/c mouse assessed as histopathological changes in spleen at 50 to 100 mg/kg, iv measured after 7 days by H and E staining based assay; format: organism-based; conditions: in vivo, 168 h, dose 50-100 mg/kg, time 7 day
A-375 [21] = assay: Induction of cell cycle arrest in human A-375 cells assessed as accumulation at G1 phase at 2.5 uM incubated for 24 hrs by PI staining based flow cytometry analysis (reference value: 68.07 %); format: functional
A-375 [22] = assay: Antitumor activity against human A-375 cells xenografted in nude mouse assessed as tumor growth inhibition at 10 to 40 mg/kg, ip and measured once every two days for 14 days; format: functional, organism-based; conditions: dose 10-40 mg/kg, time 14.0 day
[23] = Toxicity in BALB/c mouse assessed as change in body weight at 40 mg/kg, iv measured once every two days for 7 days; format: organism-based; conditions: in vivo, 168 h, time 7 day
HEK-293T = assay: Induction of mitochondrial membrane hyperpolarization in HEK293T cells assessed as JC-1 level at 2.5 to 10 uM incubated for 4 hrs by JC-1 staining based flow cytometry analysis relative to control; format: functional, Homo sapiens; conditions: dose 2.5-10 µM
A-375 [24] = assay: Induction of cell cycle arrest in human A-375 cells assessed as accumulation at G1 phase at 5 uM incubated for 24 hrs by PI staining based flow cytometry analysis (reference value: 68.07 %); format: functional
A-375 [25] = assay: Induction of cell cycle arrest in human A-375 cells assessed as accumulation at S phase at 2.5 uM incubated for 24 hrs by PI staining based flow cytometry analysis (reference value: 24.01 %); format: functional
MDA-MB-231 = assay: Antiproliferative activity against human MDA-MB-231 cells assessed as inhibition of cell viability incubated for 72 hrs by MTT assay; format: functional, cell-based; conditions: MDA-MB-231, 72 h
[26] = Toxicity in BALB/c mouse assessed as effect on body weight at 125 to 200 mg/kg, iv administered for 7 days and measured once per 2 days; format: organism-based; conditions: in vivo, 168 h, dose 125-200 mg/kg, time 7 day
[27] = Toxicity in BALB/c mouse assessed as histopathological changes in lung at 50 to 100 mg/kg, iv measured after 7 days by H and E staining based assay; format: organism-based; conditions: in vivo, 168 h, dose 50-100 mg/kg, time 7 day
A-375 [28] = assay: Antitumor activity against human A-375 cells xenografted in nude mouse assessed as decrease in bcl-2 expression at 40 mg/kg, ip measured once every two days for 14 days by immunohistochemistry assay; format: functional, organism-based; conditions: time 14.0 day
A-375 [29] = assay: Cytotoxicity against human A-375 cells assessed as reduction in cell vaibility measured at 48 hrs in absence of BNPP by MTT assay; format: functional, cell-based; conditions: A-375, 48 h
[30] = Stability of the compound assessed as Carboxylesterase (unknown origin) mediated compound hydrolysis measured upto 150 mins by RP-HPLC-UV analysis; format: ADME; conditions: human, 2.5 h
[31] = Toxicity in BALB/c mouse assessed as change in body weight at 100 mg/kg, iv administered for 7 days and measured once per 2 days; format: organism-based; conditions: in vivo, 168 h, time 7 day

SMILES: O=C(CCCCCCCCC[P+](c1ccc(C(F)(F)F)cc1)(c1ccc(C(F)(F)F)cc1)c1ccc(C(F)(F)F)cc1)NC(COC(=O)CCCc1ccccc1)(COC(=O)CCCc1ccccc1)COC(=O)CCCc1ccccc1.[Br-]
- Papp A→B at 2 h, 2 µM [1]: 24.3 ×10⁻⁶ cm/s
- Drug uptake [2]: Active
- Activity (A-375 [3]): 2.22%
- inhibition (A-375 [4]): Dde
- Activity (A-375 [5]): 8.85%
- Activity (A-375 [6]): 7%
- Activity [7]: Non-Toxic
- Activity (A-375 [8]): Active
- Activity (MCF7 [9]): 3.6%
- Drug uptake [10]: Active
- inhibition [11]: Active
- inhibition [12]: Active
- Activity (A-375 [13]): 6%
- Activity [14]: Non-Toxic
- Activity [15]: Non-Toxic
- Activity (HUVEC): 16.08%
- Activity (A-375 [16]): 77%
- Papp B→A at 2 h, 2 µM [17]: 16.8 ×10⁻⁶ cm/s
- Activity (A-375 [18]): Active
- IC50 (MCF7 [19]): 6.02 µM
- Activity [20]: Non-Toxic
- Activity (A-375 [21]): 74.71%
- Activity (A-375 [22]): Active
- Activity [23]: Non-Toxic
- Activity (HEK-293T): 18.91%
- Activity (A-375 [24]): 75.69%
- Activity (A-375 [25]): 16.71%
- IC50 (MDA-MB-231): 3.71 µM
- Activity [26]: Non-Toxic
- Activity [27]: Non-Toxic
- Activity (A-375 [28]): Active
- IC50 (A-375 [29]): 3.34 µM
- Stability [30]: Unstable
- Activity [31]: Non-Toxic
